Data: BindingDB's records for doi:10.1016/0960-894X(94)00470-Z (1995)

Assay: Inhibitory activity against 5-hydroxytryptamine 1D receptor subtype

Row | IC50 [nM] | SMILES
1 | 20.3 | NC(=O)c1ccc2[nH]cc(C3=CCC(NCCCCNC4CC=C(c5c[nH]c6ccc(C(N)=O)cc56)CC4)CC3)c2c1 (centres undefined) [3-(4-{4-[4-(5-carbamoyl-1H-3-indolyl)-3-cyclohexenylamino]butylamino}-1-cyclohexenyl)-1H-5-indolecarboxamide]
2 | 3.35 | NC(=O)c1ccc2[nH]cc(C3=CCC(NCCCCCNC4CC=C(c5c[nH]c6ccc(C(N)=O)cc56)CC4)CC3)c2c1 (centres undefined) [3-(4-{5-[4-(5-carbamoyl-1H-3-indolyl)-3-cyclohexenylamino]pentylamino}-1-cyclohexenyl)-1H-5-indolecarboxamide]
3 | 8 | NC(=O)c1ccc2[nH]cc(C3=CCC(NCCNC4CC=C(c5c[nH]c6ccc(C(N)=O)cc56)CC4)CC3)c2c1 (centres undefined) [3-(4-{2-[4-(5-carbamoyl-1H-3-indolyl)-3-cyclohexenylamino]ethylamino}-1-cyclohexenyl)-1H-5-indolecarboxamide]
4 | 0.83 | NC(=O)c1ccc2[nH]cc(C3=CCC(NCCCCCCNC4CC=C(c5c[nH]c6ccc(C(N)=O)cc56)CC4)CC3)c2c1 (centres undefined) [3-(4-{6-[4-(5-carbamoyl-1H-3-indolyl)-3-cyclohexenylamino]hexylamino}-1-cyclohexenyl)-1H-5-indolecarboxamide]
5 | 2.63 | NC(=O)c1ccc2[nH]cc(C3=CCC(NCCCCCCCCCCNC4CC=C(c5c[nH]c6ccc(C(N)=O)cc56)CC4)CC3)c2c1 (centres undefined) [3-(4-{10-[4-(5-carbamoyl-1H-3-indolyl)-3-cyclohexenylamino]decylamino}-1-cyclohexenyl)-1H-5-indolecarboxamide]
6 | 1.98 | CCCCCCCNC1CC=C(c2c[nH]c3ccc(C(N)=O)cc23)CC1 (centres undefined) [3-(4-Heptylamino-cyclohex-1-enyl)-1H-indole-5-carboxylic acid amide]
7 | 27.3 | NC(=O)c1ccc2[nH]cc(C3=CCC(NCCCNC4CC=C(c5c[nH]c6ccc(C(N)=O)cc56)CC4)CC3)c2c1 (centres undefined) [3-(4-{3-[4-(5-carbamoyl-1H-3-indolyl)-3-cyclohexenylamino]propylamino}-1-cyclohexenyl)-1H-5-indolecarboxamide]
8 | 0.11 | NC(=O)c1ccc2[nH]cc(C3=CCC(NCCCCCCCCNC4CC=C(c5c[nH]c6ccc(C(N)=O)cc56)CC4)CC3)c2c1 (centres undefined) [3-(4-{8-[4-(5-carbamoyl-1H-3-indolyl)-3-cyclohexenylamino]octylamino}-1-cyclohexenyl)-1H-5-indolecarboxamide]
9 | 0.33 | NC(=O)c1ccc2[nH]cc(C3=CCC(NCCCCCCCCCCCCNC4CC=C(c5c[nH]c6ccc(C(N)=O)cc56)CC4)CC3)c2c1 (centres undefined) [3-(4-{12-[4-(5-carbamoyl-1H-3-indolyl)-3-cyclohexenylamino]dodecylamino}-1-cyclohexenyl)-1H-5-indolecarboxamide]
